Results on five molecules are retold here after patent US20190076464A1, “CYTIDINE DEAMINASE INHIBITORS FOR THE TREATMENT OF PANCREATIC CANCER” (INSERM (OMSTOTIT NATIONAL DE LA SANTÉ ET DE LA RECHERCHE …, priority 2016, published 2019).

SMILES strings stand for the structures.

Assay [1] has as its system cancer cell proliferation. Nature of the assay: Cancer cell proliferation, CDA targeting combined with metabolic inhibitor (FIG. 7). Particulars: in combination with CDA targeting. In kind it is cell-based. An excerpt: This finding opens several other combinatory therapeutic options as glutaminase (CB-839, FIG. 7) and α-KG dehydrogenase (CPI-613, a lipoate analog, inhibits mitochondrial enzymes pyruvate dehydrogenase (PDH) and α-KG dehydrogenase in NCI-H460 cell line, disrupts tumor cell mitochondrial metabolism) inhibitors are being evaluated clinically for PDA subjects^53.

Assay [2] has as its system pancreatic cancer cells. Nature of the assay: Tumor metabolism (NAD+/NADH ratio) under pharmacological inhibition of CDA (FIG. 6C). Format: cell-based, human. The note with it: CDA inhibitor alone, FIG. 6C (NAD+/NADH ratio).
Description: Accordingly, we measure the glycolytic flux in CDA-deficient cells and the expression of key proteins involved in glycolysis in response to CDA targeting.
Assay [3] has as its system pancreatic cancer cells. Nature of the assay: Cell proliferation under pharmacological inhibition of CDA, without chemotherapy (FIG. 6B). Particulars: CDA inhibitor alone. In kind it is cell-based, human.
The subject of assay [4] is pancreatic cancer cells. Put plainly: Sensitization of pancreatic cancer cells to gemcitabine by pharmacological inhibition of CDA (FIG. 6A). Format: cell-based, human. Particulars: in vitro, CDA inhibitor combined with gemcitabine.
The test system of another assay is PDA. The note with it: in combination with gemcitabine, compared with gemcitabine alone, reference 6; cited from earlier work.
In assay [5] the test system is gemcitabine-resistant cells. Particulars: reference 13; cited from earlier work.

With `O=CC[C@@H](O)[C@H](O)[C@H](O)CO` [2-deoxy Glucose], in assay [1], the cancer cell proliferation result is on record as “strongly inhibits cancer cell proliferation”.

For the molecule `O=C(Cc1cccc(OC(F)(F)F)c1)Nc1ccc(CCCCc2nnc(NC(=O)Cc3ccccn3)s2)nn1` [CB839], the cancer cell proliferation entry in assay [1] was “strongly inhibits cancer cell proliferation”.

As to `O=C1NCC=CCN1[C@@H]1O[C@H](CO)[C@@H](O)[C@H]1O` [DR, 1,3-diazepinone riboside], in the assay with pancreatic cancer cells [2], the tumor metabolism entry is “fails to alter”. Also, the cell proliferation result in the assay on pancreatic cancer cells [3] was “fails to alter cell proliferation”. Also, in the assay on pancreatic cancer cells [4], the sensitization to gemcitabine entry is on record as “sensitizes pancreatic cancer cells to gemcitabine”.

For the molecule `C#Cc1cccc(Nc2ncnc3cc(OCCOC)c(OCCOC)cc23)c1` [Erlotinib], the overall survival time entry in the assay on PDA is reported as “only slightly increases overall survival time”.

With `O=C1NC(O)CCN1[C@@H]1O[C@H](CO)[C@@H](O)[C@H]1O` (stereo partly shown) [THU, Tetrahydrouridine], in assay [5], the sensitivity to gemcitabine result is recorded as “increases the sensitivity to gemcitabine”.
